How the values were obtained:
[1] = test system: Cobra-Venom-Factor (CVF)-oedema; experiment: CVF-oedema test (inflammation-inhibiting activity); format: in vivo; conditions: po, read-out: ED50 values in CVF-oedema
[2] = test system: CVF-oedema, carragenine-test; conditions: S. Leyck et al., Agents and Actions 13, 437-438 (1983); cited from earlier work

| Compound | ED50 [1] [mg/kg] | inhibiting effect in CVF-oedema-test as compared with carragenine-test [2] |
| --- | --- | --- |
| CC(C)C(C(=O)O)n1[se]c2ccccc2c1=O (racemic) [DL-2-(1,2-Benzisoselenazole-3(2H)-one-2-yl)-3-methylbutyric acid] | 5 | – |
| c1ccc([C@H]2CN3CCSC3=N2)cc1 [levamisole] | – | more significant inhibiting effect in CVF-oedema-test as in carragenine-test |
| O=C1CCN(c2ccccc2)N1 [phenidone] | – | more significant inhibiting effect in CVF-oedema-test as in carragenine-test |

— US4774252A, “Benzisoselenazolonyl derivatives and processes for the treatment of rheumatic disease” (priority 1985, dated 1988)
